Data reported in ChEMBL document CHEMBL1125900, “Biologically active taxol analogues with deleted A-ring side chain substituents and variable C-2' configurations” (J Med Chem, 1991).
≈ marks a conversion by molar mass, not a printed value.

Columns and labels:
[1] = Solubility in H2O was measured; assay type: physicochemical; conditions: water
CHO = experiment: Concentration that inhibits cell division by 50% after 72 hr for CHO cells was determined; assay type: functional; conditions: Cricetulus griseus, read-out: ED50 (the source's name)
J774.2 = experiment: Concentration that inhibits cell division by 50% after 72 hr for J774.2 cells was determined; assay type: functional; conditions: Mus musculus, J774.2, 72 h; read-out: ED50 (the source's name)
Homo sapiens = species: Homo sapiens; experiment: Effect on microtubule protein assembly was determined in vitro; assay type: functional

SMILES | solubility [1] [µM] | EC50 (J774.2) [µM] | EC50 (CHO) [µM] | Assembly (Homo sapiens) [%]
CC(=O)O[C@H]1C(=O)[C@@]2(C)[C@H]([C@H](OC(=O)c3ccccc3)[C@]3(O)C[C@H](OC(=O)[C@H](O)CNC(=O)c4ccccc4)C(C)=C1C3(C)C)[C@]1(OC(C)=O)CO[C@@H]1C[C@@H]2O | 615 (≈ 478 µg/mL) | 20 | 32 | 60
CC(=O)O[C@H]1C(=O)[C@@]2(C)[C@H]([C@H](OC(=O)c3ccccc3)[C@]3(O)C[C@H](OC(=O)[C@@H](O)CNC(=O)c4ccccc4)C(C)=C1C3(C)C)[C@]1(OC(C)=O)CO[C@@H]1C[C@@H]2O | 565 (≈ 439 µg/mL) | – | – | –
Nc1nc2c(ncn2[C@@H]2O[C@H](COP(=O)(O)OP(=O)(O)OP(=O)(O)O)[C@@H](O)[C@H]2O)c(=O)[nH]1 [GUANOSINE TRIPHOSPHATE] | – | – | – | 70
CC(=O)O[C@H]1C(=O)[C@@]2(C)[C@H]([C@H](OC(=O)c3ccccc3)[C@]3(O)C[C@H](OC(=O)[C@@H](O)Cc4ccccc4)C(C)=C1C3(C)C)[C@]1(OC(C)=O)CO[C@@H]1C[C@@H]2O | 160 (≈ 118 µg/mL) | 3.4 | 5.3 | 69

Further lines, with some results ahead:

solubility [1] [µM] | EC50 (J774.2) [µM] | SMILES | EC50 (CHO) [µM] | Assembly (Homo sapiens) [%]
175 (≈ 129 µg/mL) | 3.5 | CC(=O)O[C@H]1C(=O)[C@@]2(C)[C@H]([C@H](OC(=O)c3ccccc3)[C@]3(O)C[C@H](OC(=O)[C@H](O)Cc4ccccc4)C(C)=C1C3(C)C)[C@]1(OC(C)=O)CO[C@@H]1C[C@@H]2O | 5.5 | 68
– | 0.09 | CC(=O)O[C@H]1C(=O)[C@@]2(C)[C@H]([C@H](OC(=O)c3ccccc3)[C@]3(O)C[C@H](OC(=O)[C@H](O)[C@@H](NC(=O)c4ccccc4)c4ccccc4)C(C)=C1C3(C)C)[C@]1(OC(C)=O)CO[C@@H]1C[C@@H]2O [PACLITAXEL] | 0.35 | 100
820 (≈ 540 µg/mL) | 27 | CC(=O)O[C@H]1C(=O)[C@@]2(C)[C@H]([C@H](OC(=O)c3ccccc3)[C@]3(O)C[C@H](OC(=O)[C@@H](C)O)C(C)=C1C3(C)C)[C@]1(OC(C)=O)CO[C@@H]1C[C@@H]2O | > 45 | 31
1000 (≈ 659 µg/mL) | 29 | CC(=O)O[C@H]1C(=O)[C@@]2(C)[C@H]([C@H](OC(=O)c3ccccc3)[C@]3(O)C[C@H](OC(=O)[C@H](C)O)C(C)=C1C3(C)C)[C@]1(OC(C)=O)CO[C@@H]1C[C@@H]2O | > 45 | 38
